US8003572B2 (priority 2004, dated 2011)
Blank lines part the entries; values can stand above or below the compound they belong to.

Columns and labels:
[1] = tested on: C85 colorectal adenocarcinoma cells; experiment: Clonogenic assay with C85 colorectal adenocarcinoma cells; assay type: cell-based, human
Experimental: Compounds identified by structure based screening were assayed in a clonogenic assay with C85 colorectal adenocarcinoma cells. Briefly, C85 cells were plated at 200 cells per well in six well plates. Seventy-two hours after plating, compounds 05RB, 0BWP, 0FZK, 0RZL, HBS01, 01LX, 0464, 1BJO AND 27NT were added at various concentrations (See Table 1). Colonies were counted 96 hours after treatment and IC50 concentrations determined (Table 1).

MCF-7 = experiment: MTS cell proliferation assay in MCF-7; assay type: cell-based; conditions: Homo sapiens, MCF7
Experimental: (§1) In order to determine the IC50 values of HBS01 an MTS assay was performed on MCF-7 and MCF-7/ADR (adramycin resistance) cell lines. Cells were plated in a 96 well plate at 5,000 cells/well. After plating, cells were treated for 96 hours with either HBS01, methotrexate (MTX), doxyrubicin (DOX), or 5-Fluorouracil (5FU) and an MTS assay was performed according to manufacturer's protocol with the CELL TITER 96 AQ non-radioactive cell proliferation assay kit (Promega, Cat. No. G5421). Viable cells were quantitated based on absorbance at 490 nm. […] Thus, HBS01 was an extremely potent inhibitor of MCF-7 and MCF-7Adr proliferation.

[2] = tested on: MCF-7/ADR (adramycin resistance) cell line; experiment: MTS cell proliferation assay in MCF-7/ADR; assay type: cell-based; conditions: Homo sapiens, NCI/ADR-RES
Experimental: as §1

[3] = tested on: C85 human colorectal cancer cells; experiment: C85 colorectal tumors in nude mice; assay type: in vivo
Experimental: (§2) C85 human colorectal cancer cell growth was assessed in nude mice (NIH, Cr:(MCr)-Fox1nu(nu/nu homogygous), Taconic Inc., Germantown, N.Y.) treated or pretreated with HBS01 over a 19 day period. Briefly, pretreated animals were administered three daily doses of HBS01 at 17 mg/Kg given on day −3, −2, and −1 prior to tumor cell injection on day 0. No further treatment was given to the pretreated animals. Nude mice were injected in the flanks with 1 million C85 human colorectal cancer cells. Treated animals were treated with daily injections of HBS01 at 17 mg/kg per at days 10, 11, 12, 15, 16 and 17 following appearance of palpable tumors on day 10.
Tumor diameters were measured with calipers every alternate day and tumor volumes were calculated by ½ab^2 where a is the larger diameter (Friedman, H S., et al. Cancer Res. 46, 2827-2833). The results are shown in FIG. 3 as tumor volume in cm^3.

[4] = tested on: MCF-7 breast cancer cells; experiment: MCF-7 breast cancer tumors in nude mice; assay type: in vivo
Experimental: as §2, with “MCF-7 breast” for “C85 human colorectal”, “31 days.” for “a 19 day period.”, “200,000 MCF-7 breast” for “1 million C85 human colorectal”, “10. Tumor diameters were measured with calipers every alternate day and tumor volumes were calculated by ½ab^2 where a is the larger diameter (Friedman, H S., et al. Cancer Res. 46, 2827-2833). The results are shown in FIG. 4 as tumor volume in cm^3.” for “10.”

EGFP marked C85 cells = experiment: Metastatic growth of EGFP marked C85 cells in nude mice; assay type: in vivo; conditions: pre-treated 14.5 mg/kg every 24 hrs for five days; ten days post-C85 tail vein injection
Experimental: The effect of HBS01 on the metastatic growth of enhanced green fluorescent protein (EGFP) marked C85 cells was assayed in nude mice (NIH, Cr:(MCr)-Fox1nu(nu/nu homogygous), Taconic Inc., Germantown, N.Y.). Briefly, nude mice were pre-treated with 14.5 mg/kg of HBS01 every 24 hrs for five days. At the completion of pre-treatment the pre-treated or control non-treated mice were injected in the tail vein with 1×10^6 EGFP marked C85 cells. Ten days post-C85 injection, the mice were dissected and tumor size assessed based on intravital fluorescence imaging and liver biopsies.

[5] = tested on: protein ubiquination pathways; experiment: Protein ubiquination in C85 cell lysates (HA-tagged ubiquitin Western blot); assay type: cell-based; conditions: C85 cells treated for 24 or 48 hrs
Experimental: Briefly, C85 cells were plated at 200 cells per well in six well plates.
Cells were either untreated (controls) or treated for 24 or 48 hrs with HBS01. After the treatment period, cells were harvested and extracts were prepared from the cells by freeze fracturing in liquid nitrogen in breakage buffer (50 mM Tris pH 7.5, 1 mM DTT, “Complete” protease inhibitor cocktail (Roche, Cat.# 1697498), 10 μM MG132). Roughly […] of total protein extracts in 300 μl of breakage buffer was supplemented with 20 μg of PHH-Ub (HA and His6 tagged Ubiquitin) and incubated at 30° C. for 60 min. 3×SDS-PAGE sample buffer was added to 40 μl of this reaction and boiled for 3 min. The extracts were run on 12% Laemmli gels that were either stained with Coomassie Blue R-250 or blotted with HRP conjugated 12CA5 monoclonal antibody (Roche, Inc., Indianapolis, Ind.) and visualized by ECL, with the ECL plus western blot detection kit (Amersham Biosciences, Piscataway, N.J.) according to manufacturers instructions.

cyclin-B = experiment: Ubiquination of cyclin-B in C85 cell lysates (Western blot); assay type: cell-based; conditions: C85 cells treated for 24 hrs
Experimental: The ability of HBS01 to inhibit protein ubiquination of cyclin-B was assayed in C85 cell lines. Briefly, C85 cells were plated at 200 cells per well in six well plates. Cells were either untreated (controls) or treated for 24 hrs with HBS01. After the treatment period, cells were harvested and extracts were prepared from the cells by freeze fracturing in liquid nitrogen in breakage buffer (50 mM Tris pH 7.5, 1 mM DTT, “Complete” protease inhibitor cocktail (Roche, Cat.# 1697498), 10 μM MG132). Roughly […] of total protein extracts in 300 μl of breakage buffer was supplemented with 20 μg of PHH-Ub (HA and His6 tagged Ubiquitin) and incubated at 30° C. for 60 min. 3×SDS-PAGE sample buffer was added to 40 μl of this reaction and boiled for 3 min. The extracts were run on 12% Laemmli gels and Western Blots were performed with anti-cyclin-B antibody (Santa Cruz Biotechnology, Inc., Santa Cruz, Calif.). Results were visualized by ECL, with the ECL plus western blot detection kit (Amersham Biosciences, Piscataway, N.J.) according to manufacturers instructions.

[6] = Maximum tolerated dose in mice; conditions: nude, mouse, in vivo
[7] = Homo sapiens, C85 cells, colonies counted 96 hours after treatment
[8] = pretreated animals, 17 mg/Kg on day -3, -2 and -1 prior to tumor cell injection

IC50 [1, 7]: 600000 nM
Structure (SMILES): NC(=O)c1ccc([N+](=O)[O-])cc1Cl [Compound 0BWP, 2-Chloro-4-nitrobenzamide]

IC50 [1, 7]: 175000 nM
Structure (SMILES): Oc1cc(Cl)cnc1O [Compound 0FZK, 5-chloro-2,3-dihydroxypyridine]

IC50 [1, 7]: 50000 nM
Structure (SMILES): CC1CN(c2ccccc2)NC1=O (centres unmarked) [Compound 0RZL, 1-Phenyl-4-methyl-3-pyrazolidone]

IC50 [1, 7]: 375000 nM
Structure (SMILES): CC(=O)Nc1ccccc1O [Compound 01LX, 2-Acetamidophenol]

IC50 ([1]; C85 cells, colonies counted 96 hours after treatment): 37500 nM
Structure (SMILES): Nc1ccc(Nc2ccccc2)cc1 [Compound 05RB, N-Phenyl-4-phenylenediamine]

IC50 [1, 7]: 70000 nM
Structure (SMILES): Nc1ccc2cn[nH]c2c1 [Compound 0464, 6-AMINOINDAZOLE]

Structure (SMILES): NCC1CCNCC1 [HBS01, 4-(Aminomethyl)piperidine]
IC50 ([1]; Homo sapiens, C85 cells, colonies counted 96 hours after treatment, * denotes nM): 30 nM
IC50 ([1]; human colon cancer cell line C85): 30 nM
IC50 (MCF-7; MCF-7, treated for 96 hours, MTS): 0.03 µM
IC50 (MCF-7; breast cancer cell line MCF-7): 0.03 µM
IC50 ([2]; MCF-7Adr, treated for 96 hours, MTS): 0.03 µM
IC50 ([2]; breast cancer cell line MCF-7Adr): 0.03 µM
tumor growth (tumor volume) [3, 8]: delayed tumor growth
growth of established tumors (tumor volume) ([3]; treated animals, 17 mg/kg daily at days 10, 11, 12, 15, 16 and 17, 17 mg/kg): significantly inhibited the growth of established tumors
onset of tumors (tumor volume) [4, 8]: delayed the onset of MCF-7 tumors
tumor growth (tumor volume) ([4]; treated animals, 17 mg/kg daily at days 10, 11, 12, 15, 16 and 17): significantly inhibited tumor growth
metastatic tumors (EGFP marked C85 cells): metastatic tumors were not detectable
general ubiquitin conjugation (ubiquitin intensities and banding patterns) [5]: general inactivation of the ubiquitin conjugation pathways did not occur
ubiquination of cyclin-B (cyclin-B): selectively inhibited the ubiquination of cyclin-B
MTD [6]: 1400 mg/kg
